Results reported in patent US7148380B2, “Bio-energy muscle relaxants” (priority 2000, dated 2006).

System: drug-induced asthma in guinea pig
Experiment: Asthmatic latent period / drug-induced asthma in guinea pig (acetylcholine + histamine inhalation)
Assay type: in vivo
Protocol: Sensitive animals were chosen by aerosolized inhalation of asthma-inducing agents—a mixed solution of 2% acetylcholine with 0.1% histamine for 15 sec., inducing an asthmatic attack with severe difficulty in respiration and finally resulting in the animal body turned down. The time from beginning of the inhalation to animal turned down was recorded as an index named “turned down time” or asthmatic latent period. Those animals with turned down time less than 120 s. were selected for the study next day. […] Then the latent period was recorded for each of the animals.
(1) Screening animals: animal was put in a glass container, a mixed solution of 2% acetylcholine and 0.1% histamine was nebulized with a pressure of 400 mmHg and inhaled by the animals for 15 sec. Following the end of the inhalation, the time between beginning of the inhalation and the animal turned down due to bronchial spasm and dyspnea was recorded as asthmatic latent period. Those animals with a latent period beyond 120 s. were excluded, and those with a latent period less than 120 s were selected for study the next day.
(4) Measuring: Repeat the inhalation at 30 min, 4 h, and 24 h after administration of the drugs respectively. Asthmatic latent period was recorded, 6 minutes were taken as the maximum, and values beyond 6 min were counted as 6 min.
(5) Data analysis: Values were expressed as mean±sd, and paired for “t” and chi-square tests. Significance was considered to be established when p<0.05.

[1] = 10 ml/kg I.P. (BDM 0.2M, aminophylline 1.25%), mean±sd

CC(=O)C(C)=NO [BDM, 2,3-butanedione monoxime]
Asthamatic Latent Period, 4 hours after administration [1]: 99.2 ± 42.1 s | Asthamatic Latent Period, 24 hours after administration [1]: 81.8 ± 11.0 s | Incidence of asthmatic spasm (30 min after administration, down from 100%, not significant): 60% | Asthamatic Latent Period, before administration (baseline before drug, 10 ml/kg I.P. (BDM 0.2M, aminophylline 1.25%), mean±sd): 70.4 ± 21.1 s | Effect on the latent period (four and 24 h after administration): no significant effect
